Results from article PMC6150379, “Novel Triazole Hybrids of Betulin: Synthesis and Biological Activity Profile” (Molecules : A Journal of Synthetic Chemistry and Natural …, 2017).
In brackets after ≈: the same amount, converted by molar mass. Where two headings read alike, the source gives them in different places.

What was measured:
[1] = test system: cytopathogenic bovine orphan virus (ECBO) strain LCR-4; test: Time of addition assay (post-adsorption), CPE/MTT in A549 cells; format: cell-based, cytopathogenic bovine orphan virus (BEV-1); conditions: for EC50: A549; for antiviral activity: ECBO, A549 cells, CC20 concentration
[2] = test system: T47D (human ductal carcinoma); test: Cytotoxic activity, WST-1 assay; format: cell-based; conditions: 72 h, Neg = negative in the concentration used; for IC50: Homo sapiens
[3] = test system: MCF-7 (human adenocarcinoma); test: Cytotoxic activity, WST-1 assay; format: cell-based; conditions: MCF-7, 72 h, Neg = negative in the concentration used; for IC50: Homo sapiens, MCF7
[4] = test system: SNB-19 (glioblastoma); test: Cytotoxic activity, WST-1 assay; format: cell-based, human; conditions: SNB-19, 72 h, Neg = negative in the concentration used; for IC50: Homo sapiens
[5] = test system: Colo-829 (human malignant melanoma); test: Cytotoxic activity, WST-1 assay; format: cell-based; conditions: Homo sapiens; Colo-829, 72 h; Neg = negative in the concentration used
[6] = test system: C-32 (human amelanotic melanoma); test: Cytotoxic activity, WST-1 assay; format: cell-based; conditions: C-32, 72 h, Neg = negative in the concentration used; for IC50: Homo sapiens
[7] = test system: SKOV-3 human ovarian cancer cell line; test: Inhibition of tumor cell proliferation (MTT); conditions: SK-OV-3, 96 h, read-out: Max. Inhibition (% of Control)
Description: Antiproliferative activities of the compounds were measured by the MTT assay using A549 cells and a human ovarian cancer cell line SKOV-3 (adenocarcinoma ATCC® HTB77™). A total of 2 × 10^3 cells in DMEM medium supplemented with 5% FBS were placed in each well of a 96-well flat-bottom plate. After 24 h of incubation at 37 °C in 5% CO2, the growth medium was replaced by media containing different concentrations of the derivatives. Control cultures received cisplatin 0.1–10 μg/mL, and blank wells contained 100 μL of growth medium with no cells. After 96 h of incubation, cell proliferation was determined by the colorimetric MTT assay (570 nm) reading for each concentration compared with the control. At least three replicates for each sample were used to determine the cell proliferation.

[8] = Cytotoxicity assay (MTT), determination of CC50; conditions: human
Description: (§1) The cytotoxic effect of compounds on A549 cells was determined by the MTT method, as previously described [36]. The MTT assay is the enzyme-based method, which use the 3-(4,5-dimethylthiazol-2-yl)-2,5-diphenyltetrazolium bromide as a reductive coloring agent. Briefly, subconfluent monolayers of A549 cells (2 × 10^4 cell/well in Dulbecco’s Minimal Essential Medium (DMEM) supplemented with 5% fetal bovine serum (FBS), antibiotics (100 U/mL penicillin and 100 μg/mL streptomycin), and 2 mM L-glutamine (all from Sigma Aldrich, St. Louis, MO, USA) were incubated in 96-multi-well plates in the presence of dilutions of the compounds ranging from 100 μg/mL to 0.5 μg/mL, in triplicate for 48 h at 37 °C in a humidified atmosphere with 5% CO2. After 48 h, 20 μL of MTT solution (Promega, Madison, WI, USA) was added to each well, and the microplates were kept at 37 °C/5% CO2 for 3 h. Then, the solubilization/stop solution containing SDS-HCl (100 μL/well) was added, and the absorbance values of the wells were measured at 570 nm using a 96-well plate reader (Multiskan RC spectrophotometer, Thermo Labsystems, Waltham, MA, USA). Cell viability (%) was calculated for each concentration as Abs treated/Abs control × 100, where Abs treated and Abs control are the absorbance readings for the wells with and without the tested compounds, respectively. The 50% cytotoxic concentration (CC50) was defined as the concentration that reduced cell viability by 50% with respect to controls without drugs. The CC50 value was calculated from the corresponding dose–response curves.

[9] = test system: human adenovirus type-5 (HAdV-5); test: Time of addition assay, CPE/MTT in A549 cells; format: cell-based; conditions: for antiviral activity: HAdV-5, A549 cells, CC20 concentration
[10] = in vitro; conditions: human
Description: as §1

[11] = test system: Escherichia coli ATCC 25922; test: Broth microdilution method (MIC, MBC)
Description: (§2) The minimal inhibitory concentration (MIC) and minimal bactericidal concentration (MBC) were determined by the broth microdilution method, according to the Clinical and Laboratory Standards Institute [32, 33].
(§3) The antibacterial and antifungal activities of compounds were evaluated using the following strains: Staphylococcus aureus (ATCC 25923), Enterococcus faecalis (ATCC 29212), Escherichia coli (ATTC 25922), Pseudomonas aeruginosa (ATTC 27853), Klebsiella pneumoniae ATTC 700603), and Candida albicans (ATTC 10231). Cells were cultured for 24–48 h on Columbia agar or Sabouraud agar (C. albicans) in a saline solution (0.9% NaCl) and adjusted to a 0.5 McFarland density standard (1.5 × 10^8 CFU/mL). The final density of microorganisms was approximately 3 × 10^5 CFU/mL. The solutions of compounds were added to the medium at various concentrations (0.06 μM–2 mM). […] The experiments were performed in triplicate.

[12] = test system: Klebsiella pneumoniae ATCC 700603; test: Broth microdilution method (MIC, MBC)
Description: as §2, §3

[13] = test system: vesicular stomatitis virus (VSV); format: cell-based; conditions: A549 cells, CC20 concentration
[14] = test system: herpes simplex virus type-1 (HSV-1); test: Time of addition assay, CPE/MTT in A549 cells; format: cell-based; conditions: HSV-1, A549 cells, CC20 concentration
[15] = selectivity index, ratio of CC50 to EC50, ECBO in A549 cells

Question: With `C=C(C)[C@@H]1CC[C@]2(CO)CC[C@]3(C)[C@H](CC[C@@H]4[C@@]5(C)CC[C@H](O)C(C)(C)[C@@H]5CC[C@]43C)[C@@H]12` [Betulin 1, Betulin] as the molecule, how does the EC50 [1] read?
Answer: Its EC50 is 0.5 µg/mL (≈ 1.13 µM).

Question: What about the SI [1, 15] of the same molecule?
Answer: Its SI is 37.0.

Question: And the SI ([1]; selectivity index, ratio of CC50 to EC50, ECBO in A549 cells, listed as betulin 1)?
Answer: The SI was 37.

Question: What about the “IC50 ± SD” value [2] of the same molecule?
Answer: Its value is “Neg”.

Question: And the “IC50 ± SD” value [3]?
Answer: Its value is “Neg”.

Question: And the IC50 [4]?
Answer: Its IC50 is 17.7 ± 1.2 µM.

Question: And the IC50 [5]?
Answer: The IC50 was 15.3 ± 2.2 µM.

Question: And the “IC50 ± SD” value [6]?
Answer: Its value is “Neg”.

Question: What about the inhibition at 2.5 µg/mL [7] of the same molecule?
Answer: The inhibition at 2.5 µg/mL was 30%.

Question: And the CC50 at 48 h [8]?
Answer: The CC50 at 48 h was 18.5 µg/mL (≈ 41.8 µM).

Question: What does the source list for `C=C(C)C1CCC2(COC(=O)c3cn(C4CC(n5cc(C)c(=O)[nH]c5=O)OC4CO)nn3)CCC3(C)C(CCC4C5(C)CCC(O)C(C)(C)C5CCC43C)C12` (centres unmarked) [Compound 5e]?
Answer: EC50 [1]: 1 µg/mL (≈ 1.31 µM); SI [1, 15]: 10.3; SI ([9]; anti-HAdV-5 activity, ratio of CC50 to EC50, data not shown): 6; IC50 ± SD [2]: total decay of cytotoxic activity and Neg; IC50 ± SD [3]: Neg; IC50 ± SD [4]: Neg; IC50 [5]: 35.1 ± 6.2 µM; IC50 [6]: 75.2 ± 3.7 µM; melting point: 181 to 185 °C; CC50 at 48 h [10]: 10.3 µg/mL (≈ 13.5 µM); MBC ([11]; ATCC25922): 7.8 µM (≈ 5.94 µg/mL); MIC ([11]; ATCC25922, 18 h): 1.95 µM (≈ 1.49 µg/mL); bactericidal capacity ([11]; judged from MBC:MIC ratio): bactericidal activity; MBC:MIC ratio [12]: > 4; MBC ([12]; ATCC700603): 3.9 µM (≈ 2.97 µg/mL); MIC ([12]; ATCC700603, 18 h): 0.95 µM (≈ 0.724 µg/mL); bactericidal capacity ([12]; judged from MBC:MIC ratio): bacteriostatic; inhibition at 50 µg/mL [7]: 75%

Question: With `C=C(C)C1CC[C@]2(COC(=O)c3cn(CCCO)nn3)CC[C@]3(C)C(CCC4[C@@]5(C)CC[C@H](OC(=O)c6cn(CCCO)nn6)C(C)(C)C5CC[C@]43C)C12` (some centres unmarked) [Compound 6h, 3,28-O,O’-Di[1-(3-hydroxypropyl-1H-1,2,3-triazol-4-yl)carbonyl]betulin] as the molecule, how does the EC50 [1] read?
Answer: The EC50 was 0.25 µg/mL (≈ 0.334 µM).

Question: What about the antiviral activity [9] of the same molecule?
Answer: The antiviral activity was “essentially inactive”.

Question: What about the antiviral activity [13] of the same molecule?
Answer: Its antiviral activity is “essentially inactive”.

Question: And the antiviral activity [14]?
Answer: The antiviral activity was “essentially inactive”.

Question: And the IC50 [2]?
Answer: The IC50 was 62.4 ± 1.1 µM.

Question: What about the IC50 [3] of the same molecule?
Answer: The IC50 was 11.7 ± 1.2 µM.

Question: And the IC50 [4]?
Answer: The IC50 was 68.3 ± 0.9 µM.

Question: And the IC50 [5]?
Answer: Its IC50 is 6.5 ± 1 µM.

Question: And the IC50 [6]?
Answer: Its IC50 is 9.1 ± 0.2 µM.

Question: What about the melting point of the same molecule?
Answer: The melting point was 172 to 176 °C.

Question: What about the CC50 at 48 h [10] of the same molecule?
Answer: The CC50 at 48 h was 29.8 µg/mL (≈ 39.8 µM).

Question: What about the inhibition at 50 µg/mL [7] of the same molecule?
Answer: Its inhibition at 50 µg/mL is 70%.

Question: With `C#CC(=O)OC[C@]12CCC(C(=C)C)C1C1CCC3[C@@]4(C)CC[C@H](O)C(C)(C)C4CC[C@@]3(C)[C@]1(C)CC2` (some centres unmarked) [Compound 3, 28-O-propynoylbetulin] as the molecule, how does the antiviral activity [1] read?
Answer: The antiviral activity was “did not exhibit antiviral activity”.

Question: What about the antiviral activity [9] of the same molecule?
Answer: The antiviral activity was “did not exhibit antiviral activity”.

Question: What about the antiviral activity [13] of the same molecule?
Answer: The antiviral activity was “did not exhibit antiviral activity”.

Question: And the antiviral activity [14]?
Answer: The antiviral activity was “did not exhibit antiviral activity”.

Question: And the IC50 [2]?
Answer: The IC50 was 110.8 ± 0.9 µM.

Question: And the IC50 [3]?
Answer: The IC50 was 102 ± 1.4 µM.

Question: What about the IC50 [4] of the same molecule?
Answer: The IC50 was 4.2 ± 0.3 µM.

Question: And the IC50 [5]?
Answer: The IC50 was 1.7 ± 0.08 µM.

Question: What about the IC50 [6] of the same molecule?
Answer: The IC50 was 16.7 ± 0.8 µM.

Question: With `NC(=O)c1ncn([C@@H]2O[C@H](CO)[C@@H](O)[C@H]2O)n1` [Ribavirin, reference compound] as the molecule, how does the SI [1] read?
Answer: The SI was 10.0.

Question: What about the EC50 [1] of the same molecule?
Answer: Its EC50 is 10 µg/mL (≈ 40.9 µM).

Question: And the inhibition at 1.5 µg/mL [7]?
Answer: The inhibition at 1.5 µg/mL was 30%.

Question: What about the CC50 at 48 h ([8]; A549 cells) of the same molecule?
Answer: The CC50 at 48 h was 100 µg/mL (≈ 409 µM).

Question: Which antiviral activity [1] does the source give for `C#CC(=O)OC[C@]12CCC(C(=C)C)C1C1CCC3[C@@]4(C)CC[C@H](OC(=O)C#C)C(C)(C)C4CC[C@@]3(C)[C@]1(C)CC2` (some centres unmarked) [Compound 4, 3,28-O,O’-di(propynoyl)betulin] here?
Answer: Its antiviral activity is “did not exhibit antiviral activity”.

Question: And the antiviral activity [9]?
Answer: Its antiviral activity is “did not exhibit antiviral activity”.

Question: What about the antiviral activity [13] of the same molecule?
Answer: The antiviral activity was “did not exhibit antiviral activity”.

Question: And the antiviral activity [14]?
Answer: Its antiviral activity is “did not exhibit antiviral activity”.

Question: And the “IC50 ± SD” value [2]?
Answer: Its value is “Neg”.

Question: And the “IC50 ± SD” value [3]?
Answer: Its value is “Neg”.

Question: And the IC50 [4]?
Answer: Its IC50 is 13.1 ± 1.3 µM.

Question: What about the IC50 [5] of the same molecule?
Answer: The IC50 was 9.7 ± 1.5 µM.

Question: What about the IC50 [6] of the same molecule?
Answer: The IC50 was 121 ± 4.1 µM.
